# Assay results reported in patent publication US9006221B2, “Method of modulating ship activity” (H. Lee Moffitt Cancer Center and Reserach Institute, Inc., priority 2008, dated 2015).
# Legend:
# [1] = test system: Mac1+Gr1+ myeloid immunoregulatory cells; assay: FACS quantitation of Mac1+Gr1+ myeloid suppressor (MySC/MIR) cells in spleen and lymph node of treated mice; assay type: in vivo, mouse; details: for number of MIR cells: daily i.p. injection at 60 μM for 7 days; for number of Mac1+Gr1+ MySC (MDSC): daily injection at 125 μM for 7 days
# Experimental: FACS quantitation of Mac1^+Gr1^+ Myeloid-Derived Suppressor Cells (Mac1^+Gr1^+ MySC) (A,B) and FoxP3^+CD4^+CD25^+ Treg cells (C,D) in spleen and lymph node of C57BL6 mice treated with NSC13480, vehicle or non-manipulated mice (Normal). ***p<0.001; *p<0.05.
# In addition, both donor and host Treg cells can also limit or abrogate GvHD. […] (Paraiso, K. H., et al. 2007. J Immunol 178:2893). […] Adult mice were treated for 7 days with a daily injection of NSC13480 at 125 μM. The frequency of MySC and Treg cells was tested in the spleens of mice treated with NSC13480, the vehicle used for delivery of NSC 13480 and normal, untreated mice.
# Expansion of the Mac1^+Gr1^+ MIR cell compartment can suppress GvHD. [Ghansah T, et al., J Immunol (2004) 173(12):7324-7330; Paraiso K H, et al., J Immunol (2007) 178(5):2893-2900; MacDonald K P, et al., J Immunol (2005) 174(4):1841-1850] Thus, the ability 3α-aminocholestane to expand the MIR compartment in peripheral lymphoid tissues, where GvHD and organ transplant rejection are primed, was tested. Adult mice were treated for 7 days with a daily intraperitoneal (i.p.) injection of 3α-aminocholestane at 60 μM. We then compared the frequency of MIR cells in the spleens and LN of mice treated with 3α-aminocholestane to that of control mice treated with either their respective vehicles or to unmanipulated mice. […] Thus, consistent with the findings in mice genetically ablated for SHIP1 expression during adult physiology [Paraiso K H, et al., J Immunol (2007) 178(5):2893-2900], inhibition of SHIP1 activity in adult mice expands the MIR cell compartment in peripheral lymphoid tissues.
# Antibody staining and flow cytometry (Examples 1-6): Anti-CD16/32 was co-incubated with the samples to block Fc receptor binding. Antibodies used for staining included: NK1.1 (PK136); CD3e (145-2C11); Ly49G2 (4D11); Gr-1 (RB6-8C5); Mac-1(M1/70); CD11c (HL3); CD4 (GK1.5); CD25 (PC61) and were obtained from BD Pharmingen (San Jose, Calif.). FoxP3 (FJK-16s) was purchased from eBioScience (San Diego, Calif.). All samples were acquired on a FACSCalibur and analyzed using FlowJo8.7.1. For viable staining, dead cells were excluded from the analysis following cytometer acquisition of data by exclusion of the 7AAD dye. For staining of FoxP3, viable cells were first stained for extacellular markers followed by fixation and permeabilization to stain for the intracellular FoxP3.
# Use of SHIP1 inhibitory compounds for in vitro and in vivo studies: For in vitro studies 3α-aminocholestane was suspended in 100% ethanol. […]
# Antibody staining and flow cytometry (Examples 7-9): Anti-CD16/32 was incubated with the samples to block Fc receptor binding. […] All samples were acquired on a FACSCalibur and analyzed using FlowJo8.7.1. […]
# PTEN = target: T1, PTEN (Homo sapiens, UniProt P60484); assay: Malachite Green phosphate release assay, PTEN; assay type: biochemical
# T1 construct: purchased
# T1 sequence (P60484 whole entry, species assumed): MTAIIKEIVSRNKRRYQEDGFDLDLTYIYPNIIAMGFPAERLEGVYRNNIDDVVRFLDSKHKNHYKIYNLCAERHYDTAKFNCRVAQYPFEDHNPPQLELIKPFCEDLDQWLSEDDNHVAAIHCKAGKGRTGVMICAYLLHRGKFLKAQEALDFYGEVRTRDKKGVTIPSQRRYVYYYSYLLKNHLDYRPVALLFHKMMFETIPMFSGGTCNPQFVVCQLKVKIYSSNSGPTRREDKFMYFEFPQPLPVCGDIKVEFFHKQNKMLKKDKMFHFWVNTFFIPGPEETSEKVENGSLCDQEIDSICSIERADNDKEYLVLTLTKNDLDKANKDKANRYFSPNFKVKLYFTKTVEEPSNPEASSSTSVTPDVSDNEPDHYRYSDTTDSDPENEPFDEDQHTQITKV
# Experimental: The absorbance measurements shown correspond to liberated PO4 generated by recombinant PTEN (1.44 μg) when incubated with its substrate, PI (3,4,5)P3, as detected by a Malachite Green reporter.
# (A) Purified, recombinant SHIP1 has significant activity as determined by the reduction in mean polarization units (mPu) in an FP assay designed for 5′-inositol phosphatases (Echelon Biosciences, Salt Lake City, Utah.). Note that no significant reduction in mP is obtained when the enzyme buffer without SHIP1 is added to the FP assay (Buffer) or when purified SHIP1 is assayed in the absence of its PI(3,4,5)P3 substrate (SHIP1 only).
# Assay of SHIP1 enzymatic activity: A fluorescent polarization (FP) assay that detects the 5′-inositol phosphatase activity of SHIP1 was developed based on a previously established protocol [Drees B E, et al., Comb Chem High Throughput Screen (2003) 6(4):321-330] and was obtained from Echelon Biosciences (Salt Lake City, USA). Modifications of the protocol included the application of SHIP1 in the assay and an increase in the concentration of MgCl2 to […] to maximize the activity of SHIP1 in this assay. […]
"inhibition of PTEN (PTEN; at 100 μM, Malachite Green reporter, recombinant PTEN 1.44 μg)",SMILES,number of MIR cells ([1]; lymph node),number of MIR cells ([1]; spleen),"inhibition of PTEN activity (PTEN; at 1 mM, Malachite Green assay)",number of Mac1+Gr1+ MySC (MDSC) ([1]; lymph node),number of Mac1+Gr1+ MySC (MDSC) ([1]; spleen)
–,"CC(C)CCC[C@@H](C)[C@H]1CC[C@H]2[C@@H]3CC[C@H]4C[C@H](N)CC[C@]4(C)[C@H]3CC[C@]12C [NSC23922, (3R,5S,8R,9S,10S,13R,14S,17R)-10,13-dimethyl-17-[(2R)-6-methylheptan-2-yl]-2,3,4,5,6,7,8,9,11,12,14,15,16,17-tetradecahydro-1H-cyclopenta[a]phenanthren-3-amine]",increased significantly,increased significantly,fails to inhibit,–,–
no significant inhibition,"OC(c1cc(-c2ccccc2)nc2c1ccc1ccccc12)C1CCCCN1 (stereo not drawn) [NSC13480, (2-phenylbenzo[h]quinolin-4-yl)-piperidin-2-ylmethanol]",–,–,–,increased significantly,increased significantly
